Laboratory results as given in patent US20140348749A1, “IDENTIFICATION AND TREATMENT OF TUMORS SENSITIVE TO GLUCOSE LIMITATION” (Whitehead Institute for Biomedical Research, priority 2013, published 2014).
Entries after “also recorded” stand apart in the source; their conditions may differ. Like-named read-outs stand apart in the source and are kept apart here.

Experiments:
[1] = tested on: glucose limitation sensitive or resistant cell lines
Description: (§1) 250,000 cells then were attached to the plate by centrifugation at 2200 rpm without brakes for 5 min. For adherent cells, 40,000 to 80,000 cells were plated the night before the experiments. […] For spare respiratory capacity measurements, increasing FCCP concentrations (0.1, 0.5 and 2 uM) were used in order to assess maximum OCR of each cell line. For basal oxygen consumption measurements, cell number or protein concentration was used for normalization.
Metabolic responses of cell lines to mitochondrial uncoupling were analyzed by treating cells from a number of glucose limitation sensitive or resistant cell lines with the mitochondrial uncoupling agent FCCP and measuring OCR.

[2] = tested on: glucose limitation sensitive and glucose limitation resistant tumor cell lines; experiment: Proliferation of tumor cell lines exposed to metformin under low glucose; type: cell-based
Description: We tested the sensitivity of a panel of glucose limitation sensitive and glucose limitation resistant tumor cell lines to treatment with metformin, a compound that inhibits OXPHOS at least in part by inhibiting complex 1. Cells were exposed to 2 mM metformin for 3 days.

[3] = tested on: panel of 8 cell lines with varying expression of CYC1 and UQCRC1; experiment: Metformin sensitivity versus CYC1 and UQCRC1 expression in a panel of 8 cell lines; type: cell-based; conditions: 1 mM glucose as low glucose condition
Description: We tested the hypothesis that expression of CYC1 and UQCRC1 could predict sensitivity to metformin under conditions in which glucose is limiting. […] 1 mM glucose was used as a low glucose condition in this experiment.

[4] = tested on: tumors from glucose limitation sensitive cell line NCI-H929; experiment: Metformin treatment of mice with established tumors; type: in vivo; conditions: metformin 400 mg/kg, close to 3 weeks
Description: (§2) In vivo data was obtained initially using one cell line that is resistant to glucose limitation (NCI-H82) and one cell line that is sensitive to glucose limitation (NCI-H929). Mice harboring established tumors derived from these cell lines were treated with metformin (400 mg/kg) or vehicle (PBS) for close to 3 weeks and tumor size was measured. The tumor sizes were averaged for all tumors in that particular group at the end. […] Tumors from the sensitive line are on average half the size in mice treated with metformin than in mice treated with vehicle.

[5] = tested on: tumors from glucose limitation resistant cell line NCI-H82; experiment: as above; type: in vivo; conditions: metformin 400 mg/kg, close to 3 weeks
Description: as §2

[6] = among tetracycline-class antibiotics; cited from earlier work
Cal-62 cells = experiment: Long term culture of mtDNA mutant cells in phenformin; type: cell-based; conditions: Cal-62, 1.5 months, 5-20 uM phenformin
Description: Cells were split 1:10 when nearing confluence. […] The ratio of wild type to mutant mtDNA was calculated by summing the 11 Sanger Sequencing peak height measurements per nucleotide position for the wild type and mutant allele allowing for the percent mutant calculated. These values were averaged over three nucleotide positions for which the base in the wild type and mutant sequence differs.

NCI-H929 xenografts = experiment: Phenformin in drinking water, tumour xenografts; type: in vivo, mice; conditions: NCI-H929 (poor glucose consumption); phenformin 1.7 mg/ml in drinking water
Description: (§3) Further in vivo experiments were conducted using additional tumor cell lines. Xenografts were initiated with 2-5 million cells per injection site implanted subcutaneously into the right and left flanks of 5-8 week old male NOD.CB 17 Scid/J mice (Jackson Labs). Once tumours were palpable in all animals (>50 mm^3 volume by caliper measurements), mice were assigned randomly into biguanide treated or untreated groups and caliper measurements were taken every 3-4 days until tumour burden approached the limits set by institutional guidelines. Tumour volume was assessed according to the formula ½*W*W*L or 4/3*3.14*W/2*L/2*D/2 for large tumors. […] All experiments involving mice were carried out with approval from the Committee for Animal Care at MIT and under supervision of the Department of Comparative Medicine at MIT.

U-937 xenografts = experiment: Phenformin in drinking water, tumour xenografts; type: in vivo, mice; conditions: U-937 (mtDNA mutations); phenformin 1.7 mg/ml in drinking water
Description: as §3

KMS-26 xenografts = experiment: Phenformin in drinking water, tumour xenografts; type: in vivo, mice
Description: as §3

Cal-62 xenografts = experiment: Phenformin in drinking water, tumour xenografts; type: in vivo, mice; conditions: Cal-62 (mtDNA mutations); phenformin 1.7 mg/ml in drinking water
Description: as §3

BxPC3 xenografts = experiment: Phenformin in drinking water, tumour xenografts; type: in vivo, mice; conditions: BxPC3 (mtDNA mutations); phenformin 1.7 mg/ml in drinking water
Description: as §3

[7] = tested on: cell lines with mtDNA-encoded Complex I mutations or impaired glucose utilization
[8] = tested on: xenografts of mtDNA mutant cells expressing NDI1; experiment: Phenformin in drinking water, xenografts of NDI1-expressing cells; type: in vivo, mice
Description: as §3

[9] = tested on: cells with mutations in Complex I; experiment: Oxygen consumption rate (OCR) with phenformin, control or NDI1-expressing lines; type: cell-based
Description: as §1

143B Rho cells = experiment: Proliferation of cells lacking mtDNA with phenformin; conditions: 0.75 mM or 10 mM glucose

## N#CC(C#N)=NNc1ccc(OC(F)(F)F)cc1 [FCCP, Carbonyl cyanide 4-(trifluoromethoxy)phenylhydrazone]
[1]; glucose limitation resistant cell lines
  increase in OCR upon FCCP: much greater increase in OCR
[1]; glucose limitation sensitive cells
  increase in OCR upon FCCP: only a modest increase

## CN(C)C(=N)NC(=N)N [metformin, N,N-dimethylimidodicarbonimidic diamide]
[2]; 2 mM metformin, 3 days, 0.75 mM glucose
  sensitivity to metformin (proliferation) of glucose limitation sensitive versus resistant cell lines: markedly more sensitive; also recorded: greater inhibitory effects on proliferation
[2]; U937 cell line
  sensitivity of U937 cells to metformin: sensitive
[3]
  relation of UQCRC1+CYC1 expression to metformin sensitivity: correlated with sensitivity to metformin; also recorded: increased sensitivity
[4]
  cleaved caspase 3 in tumors compared with vehicle: increase in cleaved caspase 3; also recorded: increased level of cleaved caspase 3
  reduction in size of tumors compared with vehicle (PBS): approximately 50%
  tumor size in metformin treated versus vehicle treated mice: half the size
[5]
  cleaved caspase 3 in tumors compared with vehicle: not observed
  effect on size of tumors compared with vehicle (PBS): did not affect size of tumors

## CN(C)c1ccc(O)c2c1C[C@H]1C[C@H]3[C@H](N(C)C)C(O)=C(C(N)=O)C(=O)[C@@]3(O)C(O)=C1C2=O [minocycline, (2E,4S,4aR,5aS,12aR)-2-(amino-hydroxy-methylidene)-4,7-bis(dimethylamino)-10,11,12a-trihydroxy-4a,5,5a,6-tetrahydro-4H-tetracene-1,3,12-trione]
[6]
  penetration into organs: greatest penetration into certain organs such as the prostate and brain

## N=C(N)NC(=N)NCCc1ccccc1 [phenformin, 2-(N-phenethylcarbamimidoyl)guanidine]
Cal-62 cells
  sensitivity to low glucose after culture in phenformin: decrease in sensitivity to low glucose
  wild-type mtDNA content after culture in phenformin: significantly enriched wild-type mtDNA content
NCI-H929 xenografts
  growth of tumour xenografts: inhibited the growth
U-937 xenografts
  growth of tumour xenografts: inhibited the growth
KMS-26 xenografts; KMS-26 (poor glucose consumption), phenformin 1.7 mg/ml in drinking water
  growth of tumour xenografts: inhibited the growth
KMS-26 xenografts; KMS-26 cells over-expressing GLUT3
  effects of phenformin on xenograft growth after over-expression of GLUT3: rescued
Cal-62 xenografts
  growth of tumour xenografts: inhibited the growth
BxPC3 xenografts
  growth of tumour xenografts: inhibited the growth
[7]; 1.5-3.0 mM glucose
  phenformin sensitivity at intermediate glucose: substantial sensitivity persisted
[7]; BxPC3 pancreatic cancer cell line
  sensitivity of BxPC3 cells to phenformin: sensitive
[7]; cells with impaired glucose utilization, 0.75 mM glucose
  effect of GLUT3 over-expression on phenformin sensitivity: almost completely rescued the phenformin sensitivity
[7]; cells with mutations in Complex I, 0.75 mM glucose
  effect of NDI1 expression on the effects of phenformin on proliferation: almost completely rescued the effects of phenformin
[7]; low glucose sensitive cell lines, particularly those with impaired glucose utilization
  phenformin sensitivity in 0.75 versus 10 mM glucose: more sensitive to phenformin in 0.75 than 10 mM glucose
[8]
  effects of phenformin on xenograft growth after introduction of NDI1: rescued
[9]
  effect of NDI1 expression on the effects of phenformin on oxygen consumption: almost completely rescued the effects of phenformin
143B Rho cells
  sensitivity of cells lacking mtDNA to phenformin: insensitive to phenformin
